Reference: US20260240850A1, “Compositions and Methods for Treating MALT1 Associated Diseases” (Rarefied Biosciences, Inc., priority 2023, published 2026)

What was measured:
[1] = biological target: T1, proteolytic function of MALT1 (cleavage of CYLD) (Homo sapiens, UniProt Q9UDY8); experiment: CYLD cleavage in Jurkat cells bearing GOF CARD11 (Example 6); assay type: cell-based; conditions: Jurkat cells with GOF E134G, C49Y or G123D CARD11; dose dependent in the range of about 100 nM to 10 μM
T1 construct: endogenous in cells; host or cells: Jurkat cells bearing GOF E134G, C49Y or G123D CARD11
T1 sequence (Q9UDY8 1-824): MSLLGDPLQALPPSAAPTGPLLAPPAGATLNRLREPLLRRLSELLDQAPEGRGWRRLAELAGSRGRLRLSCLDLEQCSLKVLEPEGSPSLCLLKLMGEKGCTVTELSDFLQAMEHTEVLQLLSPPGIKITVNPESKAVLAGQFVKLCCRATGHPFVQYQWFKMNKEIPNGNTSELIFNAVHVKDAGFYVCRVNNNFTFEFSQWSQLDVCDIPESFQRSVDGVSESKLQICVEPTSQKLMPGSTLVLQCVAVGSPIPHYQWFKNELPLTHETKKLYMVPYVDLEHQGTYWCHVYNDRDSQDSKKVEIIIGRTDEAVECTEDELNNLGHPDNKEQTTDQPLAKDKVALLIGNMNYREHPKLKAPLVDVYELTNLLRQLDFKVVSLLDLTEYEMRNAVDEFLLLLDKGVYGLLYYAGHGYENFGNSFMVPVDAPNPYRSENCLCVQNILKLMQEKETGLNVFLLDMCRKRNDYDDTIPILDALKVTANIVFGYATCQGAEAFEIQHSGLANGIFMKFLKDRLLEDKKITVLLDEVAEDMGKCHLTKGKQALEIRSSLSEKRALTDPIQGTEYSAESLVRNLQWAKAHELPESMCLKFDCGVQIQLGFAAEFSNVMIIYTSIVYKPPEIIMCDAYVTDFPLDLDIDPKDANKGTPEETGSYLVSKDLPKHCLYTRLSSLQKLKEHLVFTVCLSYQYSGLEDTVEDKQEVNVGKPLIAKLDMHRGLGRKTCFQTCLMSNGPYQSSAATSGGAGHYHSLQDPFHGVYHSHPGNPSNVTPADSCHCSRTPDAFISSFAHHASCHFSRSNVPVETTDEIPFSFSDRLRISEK
Method: Jurkat cells bearing GOF E134G, C49Y, or G123D CARD11 were also assessed for cleavage of CYLD as a measure of the proteolytic function of MALT1. In the absence of inhibitors, the Jurkat cells with the GOF CARD11 mutants cleaved CYLD.

[2] = system: T cells that lack endogenous CARD11 and bear transfected CARD11 gain-of-function mutations; κB-GFP readout of NFκB signaling; experiment: NF-κB-GFP reporter in T cells transfected with CARD11 gain-of-function cDNA (Example 1); assay type: cell-based; conditions: T cells with CARD11 GOF variants; baseline and after anti-CD3 or PMA/ionomycin; flow cytometry
Method: MALT1 inhibitors (e.g., Compounds 1.1, 1.26, 1.27, 1.30, 1.33, 2.1, and/or 2.4) are incubated with T cells that lack endogenous CARD11 and bear transiently transfected CARD11 cDNA bearing gain-of-function mutations. An optional variation is co-transfecting 50:50 a copy of the wildtype CARD11 gene with the CARD11 gain of function mutant. The T-cells include a reporter gene (κB-GFP) that acts as a readout of NFκB signaling. The expression of NF-κB-GFP at baseline and after anti-CD3, or PMA/ionomycin stimulation is measured.
T-Cells bearing GOF variants of CARD11 have elevated baseline activation of NF-κB-GFP, and higher still after stimulation, which is assessed by flow cytometry.

[3] = system: patients with BENTA; experiment: Clinical trial of MALT1 inhibitors for BENTA (Example 2); assay type: in vivo; conditions: oral once daily, 25 mg/day up to 1000 mg/day
Method: MALT1 inhibitors (e.g., Compounds 1.1, 1.26, 1.27, 1.30, 1.33, 2.1, and/or 2.4) are used to treat patients with BENTA. MALT1 inhibitors (e.g., Compounds 1.1, 1.26, 1.27, 1.30, 1.33, 2.1, and/or 2.4) are formulated in an oral dosage form and administered to patients once daily at a starting dose of 25 mg/day. Alternatively, the daily dose is escalated from 25 mg/day to 1000 mg/day.

[4] = system: mTor pathway (e.g., mTORc1 and/or mTORc2) in primary T cells; experiment: mTor pathway activation in stimulated primary T cells, pAkt/pS6 staining (Example 3); assay type: cell-based; conditions: primary T cells after anti-CD3/anti-CD28 activation
Method: Primary T cells are stimulated to activation and cultured in the presence of IL-2. For stimulation, cells are preincubated with anti-CD3F and anti-CD28 on ice and washed. Cells were stimulated by crosslinking the anti-CD3 antibody with a secondary antibody (e.g., anti-mouse IgG for 10 min) in complete T cell media and then fixed with pre-warmed fixation buffer. Cells are then washed with FACS buffer and permeabilized with permeabilization buffer pre-chilled to −20° C. and incubated for 30 min on ice. Cells are washed and then stained with the following antibodies or appropriate isotype controls anti-pAkt (Ser473) and anti-pS6 (Ser240/244).
MALT1 inhibitors (e.g., Compounds 1.1, 1.26, 1.27, 1.30, 1.33, 2.1, and/or 2.4) are incubated with the primary T cells after activation.

[5] = biological target: T2, full-length human MALT1 (Homo sapiens, UniProt Q9UDY8); experiment: MALT1 cleavage of HOIL1 (Example 5); assay type: biochemical; conditions: HOIL1 0.05 μg/μL with MALT1, 2 h at 37° C.; gel electrophoresis/immunoblot
T2 construct: Recombinant full-length human MALT1 protein was expressed and purified; made in house
T2 sequence (Q9UDY8 1-824): T1 sequence (Q9UDY8 1-824)
Method: Recombinant full-length human MALT1 protein was expressed and purified. C-terminal Myc-FLAG-tagged full-length human HOIL1 was obtained from Origene. HOIL1 protein (0.05 μg/μL) is incubated with different concentrations of MALT1 in assay buffer (200 mM Tris-HCl, 0.8 M Na citrate, 0.1 mM EGTA, 0.05% CHAPS, 1 mM DTT, pH 7.4) for 2 h at 37° C. Cleavage of HOIL1 was analyzed by gel electrophoresis using a 4-12% Bis-Tris SDS-polyacrylamide (PAGE) gradient gel (Life Technologies). The presence of a small fragment was confirmed by immunoblotting with an N-terminal antibody (anti-N-terminal HOIL1; HPA024185; Sigma). Total HOIL1 was observed using a C-terminal directed antibody (anti-FLAG, clone M2, Sigma). These assays are performed with both the cleavable HOIL1 and, as a negative control, a non-cleavable HOIL1 (where Lys is substituted for Arg165).

[6] = system: Jurkat cells engineered with the E134G, C49Y, or G123D CARD11 gain of function (GOF) mutant; κB-GFP readout of NFκB signaling; experiment: NF-κB-GFP reporter in Jurkat cells engineered with CARD11 gain of function mutants (Example 6); assay type: cell-based; conditions: C49Y or G123D CARD11, all three mutants, dose dependent from about 100 nM to 5 μM
Method: Jurkat cells were engineered with the E134G, C49Y, or G123D CARD11 gain of function (GOF) mutant. The Jurkat cells included a reporter gene (κB-GFP) that acts as a readout of NFκB signaling.
Jurkat cells bearing GOF E134G, C49Y, or G123D CARD11 had elevated baseline activation of NF-κB-GFP. MALT1 inhibitors (e.g., Compound 1.1 or 2.4) were incubated with the above engineered Jurkat cells.

[7] = system: epithelial cells (e.g., HEK293 cells) bearing CARD14 gain-of-function mutations; κB-GFP readout of NFκB signaling; experiment: NF-κB-GFP reporter in epithelial cells transfected with CARD14 gain-of-function cDNA (Example 4); assay type: cell-based; conditions: epithelial cells with CARD14 GOF variants; flow cytometry
Method: MALT1 inhibitors (e.g., Compounds 1.1, 1.26, 1.27, 1.30, 1.33, 2.1, and/or 2.4) are incubated with epithelial cells (e.g., HEK293 cells) that lack endogenous CARD14 and bear transiently transfected CARD14 cDNA bearing gain-of-function mutations. The epithelial cells include a reporter gene (κB-GFP) that acts as a readout of NFκB signaling. The expression of NF-κB-GFP at baseline and after anti-CD3, or PMA/ionomycin stimulation is measured.
Epithelial cells bearing gain of function variants of CARD14 have elevated baseline activation of NF-κB-GFP, and higher still after stimulation, which is assessed by flow cytometry.

cleavage of HOIL1 [5] | SMILES | CYLD cleavage [1] | NF-κB-GFP expression [2] | BENTA symptoms [3] | Jun/Fos, NF-κB and/or mTor pathway activation in patients [3] | mTor pathway (mTORc1 and/or mTORc2) activation [4] | NF-κB-GFP expression [6] | NF-κB-GFP expression [7]
cleavage of HOIL1 is reduced | CO[C@@H](C)c1c(Nc2ccc([C@H](N(C)C(=O)C3CCS(=O)(=O)CC3)C(F)(F)F)cc2)cnc2nc(Cl)nn12 [Compound 1.1, N-[(1S)-1-[4-({2-chloro-7-[(1S)-1-methoxyethyl]-[1,2,4]triazolo[1,5-a]pyrimidin-6-yl}amino)phenyl]-2,2,2-trifluoroethyl]-N-methyl-1,1-dioxo-1λ^6-thiane-4-carboxamide] | suppress this CYLD cleavage in a dose dependent manner | lowered NF-κB-GFP expression | amelioration of their BENTA symptoms | reduced Jun/Fos, and/or NF-κB and/or a mTor pathway (e.g., mTORc1 and/or mTORc2) activation | suppress mTor pathway (e.g., mTORc1 and/or mTORc2) activation | reduced NF-κB-GFP expression in a dose dependent fashion | lowered NF-κB-GFP expression
cleavage of HOIL1 is reduced | CN(C(=O)[C@H]1CC[C@H](C(=O)O)CC1)[C@@H](c1ccc(Nc2cnn(-c3ccccn3)c2C(F)(F)F)cc1)C(F)(F)F [Compound 2.4] | suppress this CYLD cleavage in a dose dependent manner | lowered NF-κB-GFP expression | amelioration of their BENTA symptoms | reduced Jun/Fos, and/or NF-κB and/or a mTor pathway (e.g., mTORc1 and/or mTORc2) activation | suppress mTor pathway (e.g., mTORc1 and/or mTORc2) activation | reduced NF-κB-GFP expression in a dose dependent fashion | lowered NF-κB-GFP expression
